Test results reported in patent US20140271767A1, “BIOCOMPATIBLE HYDROGEL POLYMER MATRIX FOR DELIVERY OF CELLS” (Medicus Biosciences LLC, priority 2013, published 2014).

Experiment: Drug elution from polymer (UV-Vis)
Assay type: physicochemical
Details: within the first three days; Nolvasan polymer, 2% chlorhexidine dose (50 mg), 2 mL PBS per 1 g polymer, 37° C.
Description: A Thermo Scientific GENESYS 10S UV-Vis spectrophotometer was used to quantify the release of various drugs from several polymers. First, the reference drug or drug solution was dissolved in an appropriate solvent. Typically, phosphate buffered saline (PBS), ethanol or dimethylsulfoxide (DMSO) were used as the solvent. Next, the optimal absorption peak for identifying and quantifying the drug was determined by performing a scan of the drug solution between 200 and 1000 nm. With the absorption peak selected, a reference curve was established by measuring the peak absorbance for various concentrations of the drug. […]
Elution samples were collected daily by decanting the PBS solution from the polymer. The volume of sample collected was recorded. […] The elution sample was analyzed by first diluting the sample in the appropriate solvent using analytical pipettes such that the measured absorbance was in the range determined by the reference curve. The dilution factor was recorded. The drug concentration was calculated from the measured absorbance via the reference curve and the dilution factor. The drug amount was calculated by multiplying the drug concentration with the sample volume. The percent elution for that day was calculated by dividing the drug amount by the total amount of drug administered. […]

chlorhexidine released from polymer: Almost half
Compound: [H]/N=C(\N/C(=N/[H])NCCCCCCNC(=N)NC(=N)Nc1ccc(Cl)cc1)Nc1ccc(Cl)cc1 [chlorhexidine]
